Experiments:
HCT-116 colon carcinoma = assay: Cell Proliferation Inhibition Assay (14C-thymidine incorporation), HCT-116; type: cell-based; settings: Homo sapiens
Text: (§1) The ability of a test compound to inhibit unregulated cell proliferation may be determined by measuring incorporation of ^14C-labelled thymidine into newly synthesized DNA within cell lines derived from carcinomas originating from several tissues. Accordingly, the anti-proliferative effect of a compound on cells with a variety of phenotypes may be determined.
(§2) Carcinoma cell lines include those such as HeLa cervical adenocarcinoma (American Type Culture Collection (ATCC), Virginia, Cat. #CCL-2), A375 malignant melanoma (ATCC CRL-1619), SK-OV-3 ovarian adenocarcinoma (ATCC HTB-77), HCT-116 colon carcinoma (CCL-247), PC-3 prostate adenocarcinoma (ATCC CRL-1435), and MDA-MB-231 (Xenogen Corp.)
(§3) The carcinoma cells are trypsinized and counted. The cells (3000-8000 count) are added to each well of a 96-well CytoStar tissue culture treated scintillating microplate (Amersham #RPNQ0160) in complete medium (100 μL) and the plate is then incubated in complete medium for 24 hrs at 37° C. in an inert atmosphere containing 5% CO2. Test compound (1 μL) in 100% DMSO is added to the plate test-wells with DMSO only added to control-wells. The plate is incubated in complete medium for a second 24 hr period at 37° C. in an atmosphere containing 5% CO2.
(§4) An aliquot of a solution of Methyl ^14C-thymidine (56 mC/mmol) (NEN #NEC568 or Amersham #CFA532) and complete medium (20 uL to provide 0.2 μCi/well) is then added to each well and the plate is incubated for a third 24 hr period at 37° C. in an atmosphere containing 5% CO2. The plate contents are then discarded, the plate is washed twice with PBS (200 μL) and then PBS (200 μL) is added to each well. The plate is sealed and the degree of methyl ^14C-thymidine incorporation is quantified on a Packard Top Count.

VEGFR2 = VEGFR2 (Rattus norvegicus, UniProt O08775); assay: VEGFR2 screening assay; type: biochemical
Sequence of VEGFR2 (O08775 786-1343): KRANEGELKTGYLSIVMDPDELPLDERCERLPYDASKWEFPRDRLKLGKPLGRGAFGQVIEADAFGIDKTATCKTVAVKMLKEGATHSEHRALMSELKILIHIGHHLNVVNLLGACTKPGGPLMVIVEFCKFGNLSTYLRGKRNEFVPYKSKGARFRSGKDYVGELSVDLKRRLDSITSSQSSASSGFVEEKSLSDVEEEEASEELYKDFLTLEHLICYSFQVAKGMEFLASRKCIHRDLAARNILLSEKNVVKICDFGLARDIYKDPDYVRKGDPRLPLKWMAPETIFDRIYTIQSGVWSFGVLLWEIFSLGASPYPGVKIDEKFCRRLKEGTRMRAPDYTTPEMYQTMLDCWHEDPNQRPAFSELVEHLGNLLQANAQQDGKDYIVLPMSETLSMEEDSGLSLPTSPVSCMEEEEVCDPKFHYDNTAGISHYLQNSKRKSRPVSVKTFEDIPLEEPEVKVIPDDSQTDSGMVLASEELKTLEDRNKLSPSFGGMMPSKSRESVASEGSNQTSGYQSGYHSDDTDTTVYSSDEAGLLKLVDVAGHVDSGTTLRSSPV
Procedure: A kinase reaction mixture was prepared containing 50 mM Tris-HCl pH=8, 10 mM MgCl2, 0.1 mM […], 1 mM DTT, 10 μM ATP, 0.025 μM biotinylated histone-H1 peptide substrate and 0.2 μCuries per well ^33P-γ-ATP (2000-3000 Ci/mmol). 70 μL of the kinase reaction mixture was dispensed into the well of a streptavidin coated FlashPlate™ (Cat. #SMP103, NEN, Boston, Mass.).
(§5) Test compound stock in 100% DMSO (1 μL) was added to the wells resulting in a final concentration of 1% DMSO in the reaction with a 100 μL final reaction volume. Each enzyme was diluted in 50 mM Tris-HCl pH=8.0, 0.1% BSA and 30 μL was added to each well to initiate the reaction. The reaction was incubated for one hour at 30° C. At the end of the 1 hr incubation, the reaction was terminated by aspirating the mixture from the plate and washing the wells twice with PBS containing 100 mM EDTA. The biotinylated peptide substrate became immobilized on the Flashplate and the incorporation of ^33P-γ-ATP was measured by reading the plate on a scintillation counter. Inhibition of the enzymatic activity was measured by observing a reduced amount of ^33P-γ-ATP incorporated into the immobilized peptide.
The VEGF-R2 enzyme is a fusion protein containing a polyhistidine tag at the N terminus followed by amino acids 786 to 1343 of the rat VEGF-R2 kinase domain (Accession number U93306). The assay used 150 ng of the N-terminal biotinylated peptide biotin-[…]-amide SEQ ID NO: 2) (VEGF-R2) per well.
(§6) A maximum and minimum signal for the assay was determined on each plate. The percent inhibition of a test compound was calculated according to the formula: […]
For a series of test concentrations, the IC50 was derived by graphing percent inhibition against the log of the concentrations tested for a given compound with results shown in Table 2. For those compounds without an IC50, the inhibition values in percent are shown at a test concentration of 2 μM. The term “ND” means “not determined.”

CDK2 = biological target: T1, CDK2 (Homo sapiens, UniProt P24941); assay: CDK-2 screening assay; type: biochemical
T1 construct: purchased Upstate Biotech, Lake Placid, N.Y
Procedure: (§7) 70 μL of the kinase reaction mixture was dispensed into the well of a streptavidin coated FlashPlate™ (Cat. #SMP103, NEN, Boston, Mass.).
as §5
The CDK2 enzyme in complex with cyclin A is commercially available (Upstate Biotech, Lake Placid, N.Y.).
as §6
(§8) The term “ND” means “not determined.”

EGFR = biological target: T2, EGFR (Homo sapiens, UniProt P00533); assay: EGFR Kinase Assay; type: biochemical; settings: test concentration of 2 μM
T2 construct: intracellular portion of EGFR started at nucleotide 2189 (corresponding to amino acid 667) and ended at the termination codon; made in house; host or cells: Sf9 insect cells (baculovirus)
T2 sequence (P00533 669-1210 limits assumed): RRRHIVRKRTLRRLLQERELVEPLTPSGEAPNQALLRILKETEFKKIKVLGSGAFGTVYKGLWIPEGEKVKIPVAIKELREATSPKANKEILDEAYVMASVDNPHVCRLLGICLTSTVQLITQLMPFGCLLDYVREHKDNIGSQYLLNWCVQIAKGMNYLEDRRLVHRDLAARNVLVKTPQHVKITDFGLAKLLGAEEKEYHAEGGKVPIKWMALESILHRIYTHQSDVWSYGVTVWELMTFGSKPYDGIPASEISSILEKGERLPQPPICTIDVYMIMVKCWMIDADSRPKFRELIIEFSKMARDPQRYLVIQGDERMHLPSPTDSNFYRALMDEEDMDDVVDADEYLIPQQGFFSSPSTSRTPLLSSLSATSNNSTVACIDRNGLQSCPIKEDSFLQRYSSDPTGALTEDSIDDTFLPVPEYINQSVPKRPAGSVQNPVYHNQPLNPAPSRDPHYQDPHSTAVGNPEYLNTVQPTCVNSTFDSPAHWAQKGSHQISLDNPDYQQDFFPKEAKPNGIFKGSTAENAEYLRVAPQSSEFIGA
Text: The EGFR kinase used was a fusion of Glutathione-S-Transferase (GST) and a PCR amplified intracellular portion of EGFR (NM_005228). The intracellular portion of EGFR started at nucleotide 2189 (corresponding to amino acid 667) and ended at the termination codon. The portion was PCR amplified with primers that added the lambda attB sequences to each end, recombined into an entry vector, then into a GST destination vector (as described in Gateway Technologies Manual by Invitrogen Corporation, Carlsbad, Calif.).
The destination vector was recombined in the DH10BAC strain of bacteria to produce a bacmid. The bacmid was transfected into Sf9 cells and the supernatant containing the baculovirus was collected. The GSTEGFR protein was purified using large cultures of Sf9 cells infected with stock virus. After an appropriate period of time, the cells were collected and lysed. The GSTEGFR was then purified from the lysate on Glutathione-Sepharose columns (as described by Amersham Biosciences, Buckinghamshire, United Kingdom).
The EGFR substrate was prepared by biotinylating polyGluTyr (128 mg) (Sigma, St. Louis, Mo.) in a 1×PBS buffer incubated together with a 12-fold molar excess of Sulfo-NHS-LC-Biotin on ice for at least 2 hrs. The free biotin was separated from the biotinylated polyGluTyr on a gel filtration column.
A mixture of a 10× kinase buffer (500 mM Tris at pH 8.0, 100 mM Magnesium Chloride and 1 mM Sodium Vanadate), DTT (1 mM final from 500 mM stock), ATP (5 μM final from 10 mM stock), biotinylated polyGluTyr (10 μg/μL stock), γ-^33P ATP (10 μCi/μL stock) and water was added to each well (90 μL/well) of a Streptavidin Flashplate (Perkin Elmer, Wellesley, Mass.).
Test compound in 100% DMSO (2 μL) was added to the appropriate wells. Diluted GSTEGFR (1:300 dilution in 50 mM Tris at pH 8.0 and 0.1% bovine serum albumin) (10 μL) was added to the wells to initiate the reactions.
The plates were incubated at 30° C. for 1 hr with shaking. The reacted contents were removed and the plates were sequentially washed three times with a 1×PBS stop buffer (300 μL without Magnesium and Calcium) and 100 mM EDTA. After the final wash, the same stop buffer (200 μL) was added to the wells. The plates were then sealed and read on the TopCount scintillation counter.
Test compounds were assayed in triplicate at 16 concentrations at half-log dilutions starting at 200 uM. A maximum and minimum signal for the assay was determined on each plate. The percent inhibition of a test compound was calculated according to the formula
For a series of test concentrations, the IC50 was derived by graphing percent inhibition against the log of the concentrations tested for a given compound. The percent inhibition results are shown in Table 1 at a test concentration of 2 μM. For those compounds with an IC50, the IC50 value is shown in parentheses.

CDK1 = biological target: T3, CDK1 (Homo sapiens, UniProt P06493); assay: CDK-1 screening assay; type: biochemical
T3 construct: purchased New England Biolabs, Beverly, Mass; 6020; host or cells: insect cells
T3 sequence (P06493 whole entry): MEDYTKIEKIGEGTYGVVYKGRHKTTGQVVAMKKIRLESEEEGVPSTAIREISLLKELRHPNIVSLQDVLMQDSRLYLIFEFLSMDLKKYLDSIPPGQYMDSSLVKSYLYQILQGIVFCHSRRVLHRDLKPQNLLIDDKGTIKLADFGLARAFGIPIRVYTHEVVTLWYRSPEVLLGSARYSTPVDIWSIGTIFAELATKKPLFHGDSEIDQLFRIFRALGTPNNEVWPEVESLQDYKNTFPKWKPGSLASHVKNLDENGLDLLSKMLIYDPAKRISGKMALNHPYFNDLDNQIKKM
T3 sequence (P14635 whole entry partner): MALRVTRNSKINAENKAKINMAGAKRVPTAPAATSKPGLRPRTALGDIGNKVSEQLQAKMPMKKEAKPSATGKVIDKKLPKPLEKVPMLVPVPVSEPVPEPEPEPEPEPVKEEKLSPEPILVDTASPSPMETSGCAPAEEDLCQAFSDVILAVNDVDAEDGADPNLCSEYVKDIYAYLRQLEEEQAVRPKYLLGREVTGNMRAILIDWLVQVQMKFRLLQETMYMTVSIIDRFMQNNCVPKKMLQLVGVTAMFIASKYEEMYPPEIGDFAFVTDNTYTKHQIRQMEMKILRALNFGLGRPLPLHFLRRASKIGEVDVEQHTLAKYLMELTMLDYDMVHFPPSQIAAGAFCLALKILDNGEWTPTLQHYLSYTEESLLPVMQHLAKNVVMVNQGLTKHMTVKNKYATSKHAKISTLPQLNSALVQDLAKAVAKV
Procedure: as §7, §5, §6, §8

A375 malignant melanoma = assay: Cell Proliferation Inhibition Assay (14C-thymidine incorporation), A375; type: cell-based; settings: Homo sapiens, A-375
Text: as §1, §2, §3, §4

[1] = system: HeLa cervical adenocarcinoma; assay: Cell Proliferation Inhibition Assay (14C-thymidine incorporation), HeLa; type: cell-based; settings: Homo sapiens
Text: as §1, §2, §3, §4

SMILES | IC50 (HCT-116 colon carcinoma) [µM] | IC50 (VEGFR2) [µM] | IC50 (CDK2) [µM] | inhibition at 2 µM (EGFR) [%] | IC50 (CDK1) [µM] | IC50 (A375 malignant melanoma) [µM] | IC50 [1] [µM]
NS(=O)(=O)c1ccc(Nc2nc(Nc3ccccn3)c3cn[nH]c3n2)cc1 [Cpd 8, 4-[4-(pyridin-2-ylamino)-1H-pyrazolo[3,4-d]pyrimidin-6-ylamino]-benzenesulfonamide] | 100 | 6.98 | 7.62 | 25 | 24.7 | 100 | 100
NS(=O)(=O)c1ccc(Nc2nc(Nc3ccc4[nH]ncc4c3)nc3[nH]ncc23)cc1 [Cpd 12, 4-[6-(1H-indazol-5-ylamino)-1H-pyrazolo[3,4-d]pyrimidin-4-ylamino]-benzenesulfonamide] | 10 | 0.536 | 0.432 | 44 | 0.568 | 85.2 | 36
